We go through 18 compounds from patent publication US20260193283A1, “CARBOXAMIDE DERIVATIVE HAVING RSK INHIBITORY EFFECT, PHARMACEUTICAL COMPOSITION COMPRISING SAME, AND USE THEREOF” (KINOTECK THERAPEUTICS CO., LTD., priority 2022, published 2026).

The target of one series is T1, RSK2 kinase (Homo sapiens, UniProt P51812).
T1 construct: purchased Carna 01-150
The series is described as follows: HTRF KinEASE-STK assay of RSK2 kinase inhibition in vitro. It counts as biochemical. Particulars: 0.18 nM RSK2 recombinase, 10 μM ATP, read-out: IC50, in vitro inhibitory activity on RSK2 kinase. As for the experimental part: The inhibitory effect of small molecule compounds on RSK2 kinase was detected using HTRF KinEASE-STK assay. […] Specifically, firstly, 2.5×RSK2 recombinase and 5×inhibitor were added to a buffer system in a 384 well plate, and incubated at room temperature for 10 minutes, negative control wells without enzyme and positive control wells without compounds were set at the same time, then, 2.5×peptide substrate and ATP were added, and then the reaction began.
A general note: TR-FRET usually uses a lanthanide donor and a delayed reading to cut background.

A further series concerns MDA-MB-453 cells. The series is described as follows: Triple negative breast cancer cell proliferation inhibition (CCK-8, 5 days). Type of series: cell-based. Particulars: Homo sapiens, 120 h, 5 days incubation, read-out: IC50, proliferation inhibitory activity on MDA-MB-453. The method, then: The compound or vehicle control (DMSO) was diluted in culture medium in a 96 well plate, with the final concentrations of 50, 25, 12.5, 6.25, 3.13, 1.56, 0.78, 0.39, 0.2, and 0.1 μM. 1×10^3 MDA-MB-453 cells were inoculated into each well, and the plate was incubated in the incubator for 5 days. After the incubation period, cell survival was quantified using Cell Counting Kit-8 (CCK-8) reagent. In short, the cells were incubated with CCK8 for 2-4 hours, and then the absorbance at 450 nm and 650 nm was measured. CCK-8 is WST-8 (chemical name: 2-(2-methoxy-4-nitrophenyl)-3-(4-nitrophenyl)-5-(2,4-disulfonate benzene)-2H tetrazole monosodium salt), which is reduced to a highly water-soluble yellow formazan dye by dehydrogenases in cells under the action of electron carrier 1-methoxy-5-methylphenazinium sulfate dimethyl ester (1-Methoxy PMS). The number of generated formazan dye substances is directly proportional to the number of live cells, so this characteristic can be used to calculate the survival percentage, as shown in the following equation:
[formula] • As: experimental well (the treatment wells containing cells, different concentrations of drug) • Ab: solvent control well (solvent treatment wells containing cells, 0 concentration of drug) • Ac: blank well (well without cells and drugs)
The cell survival rate data and corresponding compound concentrations were input into GraphPad Prism software to fit and calculate IC50 values.

The nature of series [1]: Pharmacokinetic study in mice. Particulars: mouse; male ICR mice, oral gavage administration, 10 mg/kg, plasma. Type of series: in vivo. As for the experimental part:
Pharmacokinetic experiments in mice were conducted using male ICR mice weighed 20-25 g, provided by the Experimental Animal Management Department of Shanghai Family Planning Scientific Research Institute. 3 mice were taken and fasted overnight, and then administered orally by gavage (10 mg/kg). Blood samples were collected before administration, at 15 and 30 minutes as well as 1, 2, 4, 8, and 24 hours after administration; in addition, another 3 mice were taken and administered intravenously (1 mg/kg), and blood samples were collected before administration, at 15 and 30 minutes as well as 1, 2, 4, 8, and 24 hours after administration. blood sample was centrifuged at 6800 g, 2-8° C. for 6 minutes, and then the plasma was collected and stored at −80° C. Plasma at each time point were added 10-20 times the amount of methanol or acetonitrile solution containing internal standard, and mixed by vortex for 1 minute, centrifuged at 18000 rpm at 4° C. for 10 minutes, and then the supernatant was taken to analyze by LC-MS/MS directly. The main pharmacokinetic parameters were analyzed using WinNonlin 7.0 software for non compartmental model analysis.

T1 sequence (P51812 whole entry): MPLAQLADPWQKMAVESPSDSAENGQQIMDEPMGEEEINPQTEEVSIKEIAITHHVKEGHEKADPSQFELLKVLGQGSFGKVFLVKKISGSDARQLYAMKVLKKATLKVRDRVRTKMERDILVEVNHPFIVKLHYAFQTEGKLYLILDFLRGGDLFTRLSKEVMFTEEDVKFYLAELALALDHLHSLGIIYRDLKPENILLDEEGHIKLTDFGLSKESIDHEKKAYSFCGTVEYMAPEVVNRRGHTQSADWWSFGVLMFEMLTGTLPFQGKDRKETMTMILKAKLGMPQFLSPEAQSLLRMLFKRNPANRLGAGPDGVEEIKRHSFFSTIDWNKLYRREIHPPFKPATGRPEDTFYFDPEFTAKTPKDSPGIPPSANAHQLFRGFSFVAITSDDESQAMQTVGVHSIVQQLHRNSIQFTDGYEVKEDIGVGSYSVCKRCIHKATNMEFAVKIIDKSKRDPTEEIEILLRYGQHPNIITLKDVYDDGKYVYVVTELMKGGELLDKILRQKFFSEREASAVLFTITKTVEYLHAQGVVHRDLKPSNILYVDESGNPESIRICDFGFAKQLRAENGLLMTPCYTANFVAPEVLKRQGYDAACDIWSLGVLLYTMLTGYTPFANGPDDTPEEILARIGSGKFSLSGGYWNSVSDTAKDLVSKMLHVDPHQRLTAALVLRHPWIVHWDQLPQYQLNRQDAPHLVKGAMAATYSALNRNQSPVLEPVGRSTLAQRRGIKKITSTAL

In the case of `C[C@@H]1CNC(=O)c2cc3ccc(C(=O)Nc4cnn(Cc5ccc(P(C)(C)=O)cc5)c4)nc3n21` [Compound 1, (R)—N-(1-(4-(dimethylphosphoryl)benzyl)-1H-pyrazol-4-yl)-9-methyl-6-oxo-6,7,8,9-tetrahydropyridino[3′, 2′: 4,5]pyrrolo [1,2-a]pyrazine-2-carboxamide], the IC50 on RSK2 kinase was determined as 0.44 nM.
On to `C[C@@H]1CNC(=O)c2cc3ccc(C(=O)Nc4cnn(Cc5ccc(N=S(C)(C)=O)cc5)c4)nc3n21` [Compound 2, (R)—N-(1-(4-((dimethyl (oxo)-λ^6-sulfanylidene)amino)benzyl)-1H-pyrazol-4-yl)-9-methyl-6-oxo-6,7,8,9-tetrahydropyridino [3′,2′: 4,5]pyrrolo [1,2-a]pyrazine-2-carboxamide], for which, on RSK2 kinase, the IC50 worked out at 0.31 nM.
The same measure, in the same setting: the value for `C[C@@H]1CNC(=O)c2cc3ccc(C(=O)Nc4cnn(Cc5ccc(S(C)(=N)=O)cc5)c4)nc3n21` (some centres unmarked) [Compound 3] was 0.24 nM.
Turning to `C[C@@H]1CNC(=O)c2cc3ccc(C(=O)Nc4cnn(Cc5ccnc(C(C)(C)O)c5)c4)nc3n21` [Compound 4], the IC50 was determined as 0.42 nM on RSK2 kinase and 2660 nM in the series with MDA-MB-453 cells.
By AUC(0-t) is commonly meant exposure summed from dosing to a finite time, without extrapolation to infinity. Lower therefore signals less exposure. One may read the Cmax as the highest concentration seen after dosing. The term Tmax denotes the time from dosing to the highest level. A word on the half-life: it is the time needed for the level to fall by half in the phase considered. Low readings indicate fast loss, high ones slow loss. On to `C[C@@H]1CNC(=O)c2cc3ccc(C(=O)Nc4cnn(Cc5ccc(C(C)(C)O)nc5)c4)nc3n21` [Compound 5], for which the IC50 on RSK2 kinase worked out at 0.35 nM. Moreover, in series [1], the AUC(0-t) was 35100 ng·h/mL, the concentration peaked (Cmax) at 17900 ng/mL, the Tmax came out at 15 min and the half-life is 94.2 min. The IC50 with MDA-MB-453 cells was determined as 2040 nM.
`C[C@@H]1CNC(=O)c2cc3cc(F)c(NC(=O)c4cnn(Cc5ccc(N)cc5)c4)nc3n21` [Compound 6, (R)-1-(4-aminobenzyl)-N-(3-fluoro-9-methyl-6-oxo-6,7,8,9-tetrahydropyridino [3′, 2″: 4,5]pyrrolo [1,2-a]pyrazin-2-yl)-1H-pyrazole-4-carboxamide]: the IC50 on RSK2 kinase amounted to 175 nM.
Still for that read-out and setting: the value for `C[C@@H]1CNC(=O)c2cc3ccc(C(=O)Nc4cnn(Cc5ccc(N)cc5)c4)c(F)c3n21` [Compound 7, (R)—N-(1-(4-aminobenzyl)-1H-pyrazol-4-yl)-6-fluoro-4-methyl-1-oxo-1,2,3,4-tetrahydropyrazino [1,2-a]indole-7-carboxamide] was 99.9 nM.
As to `CC(c1ccc(C(C)(C)O)nc1)n1cc(NC(=O)c2ccc3cc4n(c3n2)[C@H](C)CNC4=O)cn1` (stereo partly drawn) [Compound 8, (9R)—N-(1-(1-(6-(2-hydroxyprop-2-yl)pyridin-3-yl)ethyl)-1H-pyrazol-4-yl)-9-methyl-6-oxo-6,7,8,9-tetrahydropyridino [3′, 2′: 4,5]pyrrolo [1,2-a]pyrazine-2-carboxamide], the values for the IC50 at RSK2 kinase and with MDA-MB-453 cells were 0.8 nM and 5610 nM, respectively.
For the compound `Cc1cc(NC(=O)c2ccc3cc4n(c3n2)[C@H](C)CNC4=O)nn1Cc1ccc(C(C)(C)O)nc1` [Compound 9], the IC50 at RSK2 kinase was 43 nM.
As to `C[C@@H]1CNC(=O)c2cc3ccc(C(=O)Nc4cnn(Cc5ccc(C6(O)CC6)nc5)c4)nc3n21` [Compound 10], the IC50 on RSK2 kinase amounted to 0.11 nM.
Still for that read-out and setting: the value for `C[C@@H]1CNC(=O)c2cc3ccc(C(=O)Nc4cnn(Cc5ccc(C6(O)CCC6)nc5)c4)nc3n21` [Compound 11] was 0.29 nM; that for `C[C@@H]1NC(=O)c2cc3ccc(C(=O)Nc4cnn(Cc5ccc(C(C)(C)O)nc5)c4)nc3n2[C@@H]1C` [Compound 12] was 0.43 nM.
For the compound `C[C@@H]1CNC(=O)c2cc3ccc(C(=O)Nc4cnn(Cc5ccc(C(C)(C)O)nc5)c4)c(F)c3n21` [Compound 13], the IC50 on RSK2 kinase is 5.43 nM.
Same read-out and setting: the value for `C[C@H]1Cn2c(cc3ccc(C(=O)Nc4cnn(Cc5ccc(C(C)(C)O)nc5)c4)nc32)C(=O)N1` [Compound 14] was 1.58 nM.
As for `C[C@@H]1CNC(=O)c2cc3ccc(C(=O)Nc4cnn(Cc5cnc(C(C)(C)O)c(F)c5)c4)nc3n21` [Compound 15, (R)—N-(1-((5-fluoro-6-(2-hydroxyprop-2-yl)pyridin-3-yl)methyl)-1H-pyrazol-4-yl)-9-methyl-6-oxo-6,7,8,9-tetrahydropyridino [3, 2′: 4,5]pyrrolo [1,2-a]pyrazine-2-carboxamide], on RSK2 kinase, the IC50 turned out to be 0.08 nM. In series [1], the AUC(0-t) was determined as 99300 ng·h/mL, the highest level (Cmax) was 22800 ng/mL, the Tmax came out at 30 min and the half-life is 131 min. In addition, the IC50 in the series with MDA-MB-453 cells came out at 2480 nM.
As to `C[C@@H]1NC(=O)c2cc3ccc(C(=O)Nc4cnn(Cc5cnc(C(C)(C)O)c(F)c5)c4)nc3n2[C@@H]1C` [Compound 16, (8S, 9R)—N-(1-((5-fluoro-6-(2-hydroxyprop-2-yl)pyridin-3-yl)methyl)-1H-pyrazol-4-yl)-8,9-dimethyl-6-oxo-6,7,8,9-tetrahydropyridino [3′, 2′: 4,5]pyrrolo [1,2-a]pyrazine-2-carboxamide], on RSK2 kinase, the IC50 came to 0.08 nM.
As for `[2H]C([2H])([2H])C(O)(c1ccc(Cn2cc(NC(=O)c3ccc4cc5n(c4n3)[C@H](C)CNC5=O)cn2)cn1)C([2H])([2H])[2H]` [Compound 17], the IC50 on RSK2 kinase was 0.22 nM.
Regarding `C[C@@H]1CNC(=O)c2cc3ccc(C(=O)Nc4cnn(Cc5ccc(N)cc5)c4)nc3n21.Cl` [Control Compound II, reference compound], the IC50 at RSK2 kinase turned out to be 1.08 nM. In addition, in series [1], the AUC(0-t) is 4610 ng·h/mL, the maximum concentration (Cmax) came out at 3420 ng/mL, the Tmax is 25.2 min and the half-life is 49.2 min. Besides, the IC50 in the series on MDA-MB-453 cells came to 4600 nM.
